Data: publication PMC7144022, “Quinolinecarboxamides Inhibit the Replication of the Bovine Viral Diarrhea Virus by Targeting a Hot Spot for the Inhibition of Pestivirus Replication in the RNA-Dependent RNA Polymerase” (Molecules, 2020)

How the values were obtained:
[1] = Cytotoxicity assay, proliferation of exponentially growing MDBK cells (MTS/PMS); assay type: cell-based, bovine; details: bovine
Procedure: Assays were carried out, as described previously.

BVDV NADL virus = assay: CPE-based antiviral assay, BVDV NADL in MDBK cells (MTS/PMS); details: for EC50: Bovine viral diarrhea virus isolates and strains, MDBK, 72 h; for S.I.: selectivity index, CC50 vs EC50
[2] = sheet CSFCII#, potency relative to TO502-2403 (EC50 0.2 µM)
[3] = sheet CSFCI#, potency relative to TO505-6180 (EC50 0.07 µM)

SMILES | CC50 at 5 days [1] [µM] | EC50 (BVDV NADL virus) [µM] | S.I. (BVDV NADL virus) | fold increase (BVDV NADL virus; [2]) | fold increase (BVDV NADL virus; [3])
O=C(Nc1ccn(-c2ccccc2)n1)c1cc(-c2cnccn2)nc2ccccc12 [CSFC-108, O=C(c2cc(nc1ccccc12)c3cnccn3)Nc4ccn(n4)c5ccccc5] | > 100 | 0.2 | 500 | 1.00 | –
O=C(Nc1nc2ccc(C(F)(F)F)cc2s1)c1cc(-c2ccccc2)nc2ccccc12 [CSFC-94, FC(F)(F)c1ccc2nc(sc2c1)NC(=O)c4cc(nc3ccccc34)c5ccccc5] | > 100 | 100 | 1 | 0.002 | –
Cc1cc(C)c2sc(NC(=O)c3cc(-c4ccccc4)nc4ccccc34)nc2c1 [CSFC-149, Cc1cc2nc(NC(=O)c3cc(nc4ccccc43)c3ccccc3)sc2c(C)c1] | > 100 | 0.2 | 500 | – | 0.35
O=C(Nc1nc2ccc(F)cc2s1)c1cc(-c2ccccc2)nc2ccccc12 [CSFC-18, Fc1ccc2nc(NC(=O)c3cc(nc4ccccc43)c3ccccc3)sc2c1] | > 100 | 0.3 | 333 | – | 0.23
O=C(Nc1ccn(-c2ccccc2)n1)c1cc(-c2ccc(Cl)s2)nc2ccccc12 [CSFC-53, Clc1ccc(s1)c3nc2ccccc2c(c3)C(=O)Nc4ccn(n4)c5ccccc5] | > 100 | 77.5 | 1 | 0.00258 | –
O=C(Nc1ccn(-c2ccccc2)n1)c1cc(-c2ccccn2)nc2ccccc12 [CSFC-96, O=C(c2cc(nc1ccccc12)c3ccccn3)Nc4ccn(n4)c5ccccc5] | > 100 | 0.2 | 500 | 1.00 | –
Cc1ccc(-n2ccc(NC(=O)c3cc(-c4cccnc4)nc4ccccc34)n2)cc1 [CSFC-140, Cc1ccc(cc1)n2ccc(n2)NC(=O)c4cc(nc3ccccc34)c5cccnc5] | 16 | 0.02 | – | 10.00 | –
O=C(Nc1nc2c(F)cc(Br)cc2s1)c1cc(-c2ccccc2)nc2ccccc12 [CSFC-147, Fc1cc(Br)cc2sc(nc12)NC(=O)c1cc(nc2ccccc21)c1ccccc1] | 6.2 ± 1.1 | 0.01 | – | – | 7.00
O=C(Nc1nc2cc(Cl)ccc2s1)c1cc(-c2ccco2)nc2ccccc12 [CSFC-55, Clc1cc2nc(sc2cc1)NC(=O)c4cc(nc3ccccc34)c5ccco5] | > 100 | 100 | 1 | 0.002 | –
Cc1cc2nc(NC(=O)c3cc(-c4ccccc4)nc4ccccc34)sc2cc1C [CSFC-11, Cc1cc2nc(NC(=O)c3cc(nc4ccccc43)c3ccccc3)sc2cc1C] | > 100 | 0.3 | 333 | – | 0.23
O=C(Nc1ccn(-c2ccc(F)cc2)n1)c1cc(-c2ccccc2)nc2ccccc12 [CSFC-128, Fc1ccc(cc1)n2ccc(n2)NC(=O)c4cc(nc3ccccc34)c5ccccc5] | > 100 | 0.5 | 200 | 0.40 | –
Cc1cccc2sc(NC(=O)c3cc(-c4ccco4)nc4ccc(F)cc34)nc12 [CSFC-71, Fc1cc2c(cc1)nc(cc2C(=O)Nc3nc4c(C)cccc4s3)c5ccco5] | > 100 | 0.1 | 1000 | 2.00 | –
COc1ccc2nc(NC(=O)c3cc(-c4ccco4)nc4c(C)cc(C)cc34)sc2c1 [CSFC-65, O=C(c2cc(nc1c2cc(cc1C)C)c3ccco3)Nc4nc5ccc(cc5s4)OC] | > 100 | 5.8 | 17 | 0.0345 | –
Cc1ccc(-c2cc(C(=O)Nc3ccn(-c4ccccc4)n3)c3ccccc3n2)cc1 [CSFC-112, Cc1ccc(cc1)c3nc2ccccc2c(c3)C(=O)Nc4ccn(n4)c5ccccc5] | > 100 | 0.1 | 1000 | 2.00 | –
